Patent publication US10508104B2, “6-hydroxy-5-(phenyl/heteroarylsulfonyl)pyrimidin-4(1H)-one as APJ agonists” (Bristol-Myers Squibb Company, priority 2016, dated 2019)

target: human APJ receptor (Homo sapiens (Human), UniProt P35414); experiment: Intracellular cAMP accumulation assay (APJ hcAMP, HTRF); assay type: cell-based; conditions: HEK293 cells stably expressing human APJ receptor; inhibition of forskolin-mediated cAMP production; read-out: Human APJ cAMP EC50 Potency range
Summary of the method: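 HEK293 cells stably expressing human APJ, 5,000 per well, incubated 30 min at rt with compound, […] and 2 μM forskolin. cAMP measured by HTRF against a cAMP standard curve as inhibition of forskolin-driven production. EC50 from variable-slope sigmoidal fit.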

Chain of human APJ receptor (P35414 whole entry): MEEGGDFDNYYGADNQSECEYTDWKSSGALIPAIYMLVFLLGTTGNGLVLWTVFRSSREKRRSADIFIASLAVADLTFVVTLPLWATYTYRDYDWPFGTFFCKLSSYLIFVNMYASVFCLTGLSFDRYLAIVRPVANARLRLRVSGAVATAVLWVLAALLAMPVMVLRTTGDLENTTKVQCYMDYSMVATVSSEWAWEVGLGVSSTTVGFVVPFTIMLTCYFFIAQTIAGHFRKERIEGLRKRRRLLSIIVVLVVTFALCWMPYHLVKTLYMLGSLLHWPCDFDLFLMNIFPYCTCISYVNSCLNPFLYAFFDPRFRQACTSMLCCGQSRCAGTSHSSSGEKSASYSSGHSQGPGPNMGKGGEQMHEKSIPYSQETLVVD

SMILES	EC50 [nM]
CCCCc1nc(=O)c(S(=O)(=O)C2CCN(C(=O)c3nnc(C)o3)CC2)c(O)n1-c1c(OC)cccc1OC [Example 110, 2-Butyl-1-(2,6-dimethoxyphenyl)-6-hydroxy-5-((1-(5-methyl-1,3,4-oxadiazole-2-carbonyl)piperidin-4-yl)sulfonyl)pyrimidin-4(1H)-one]	0.01 to 10
CC[C@@H](c1cccc(C#N)c1)n1c(CC2CC2)nc(=O)c(S(=O)(=O)c2ccc(-c3ccnc(F)c3C)cc2)c1O [Example 442, 3-[(1S)-1-[2-(cyclopropylmethyl)-5-[4-(2-fluoro-3-methylpyridin-4-yl)benzenesulfonyl]-6-hydroxy-4-oxo-1,4-dihydropyrimidin-1-yl]propyl]benzonitrile]	0.01 to 10
CCCCc1nc(=O)c(S(=O)(=O)c2ccc(-c3cccnc3C)cc2)c(O)n1[C@H](c1cccc(C#N)c1)C1CC1 [Example 484, 3-[(S)-{2-butyl-6-hydroxy-5-[4-(2-methyipyridin-3-yl)benzenesulfonyl]-4-oxo-1,4-dihydropyrimidin-1-yl}(cyclopropyl)methyl] benzonitrile]	0.01 to 10
CCCCc1nc(=O)c(S(=O)(=O)c2ccc(C(=O)O)cc2)c(O)n1-c1c(OC)cccc1OC [Example 89, 4-((2-Butyl-1-(2,6-dimethoxyphenyl)-6-hydroxy-4-oxo-1,4-dihydropyrimidin-5-yl)sulfonyl)benzoic Acid]	0.01 to 10
CC(C)OCc1nc(=O)c(S(=O)(=O)c2ccc(Br)cc2)c(O)n1[C@H](c1cccc(C#N)c1)C1CC1 [Example 372, 3-[(S)-[5-(4-bromobenzenesulfonyl)-6-hydroxy-4-oxo-2-[(propan-2-yloxy)methyl]-1,4-dihydropyrimidin-1-yl](cyclopropyl)methyl] benzonitrile]	0.01 to 10
CCCCc1nc(=O)c(S(=O)(=O)c2ccc(-c3ccccc3C(=O)NC3CC3)cc2)c(O)n1[C@@H](CC)c1cccc(C#N)c1 [Example 522, 4′-({2-butyl-1-[(1S)-1-(3-cyanophenyl)propyl]-6-hydroxy-4-oxo-1,4-dihydropyrimidin-5-yl}sulfonyl)-N-cyclopropyl-[1,1′-biphenyl]-2-carboxamide]	0.01 to 10

same assay, conditions: human APJ, cAMP accumulation; read-out: Human APJ cAMP EC50 Potency range

SMILES	EC50 [nM]
CCOCc1nc(=O)c(S(=O)(=O)c2ccc(-c3ccncc3C)c(F)c2)c(O)n1[C@@H](COC)c1ccccc1 [Example 340, 2-(ethoxymethyl)-5-[3-fluoro-4-(3-methylpyridin-4-yl)benzenesulfonyl]-6-hydroxy-1-[(1R)-2-methoxy-1-phenylethyl]-1,4-dihydropyrimidin-4-one]	0.01 to 10
CCOCc1nc(=O)c(S(=O)(=O)c2ccc(Br)c(F)c2)c(O)n1[C@@H](COC)c1ccccc1 [Example 300, 5-(4-bromo-3-fluorobenzenesulfonyl)-2-(ethoxymethyl)-6-hydroxy-1-[(1R)-2-methoxy-1-phenylethyl]-1,4-dihydropyrimidin-4-one]	0.01 to 10
CCCCCc1nc(=O)c(S(=O)(=O)c2ccc(Br)cc2)c(O)n1[C@@H](COC)c1ccccc1 [Example 247, 5-(4-bromobenzenesulfonyl)-6-hydroxy-3-[(1R)-2-methoxy-1-phenylethyl]-2-pentyl-3,4-dihydropyrimidin-4-one]	10 to 100
CCCCc1nc(O)c(S(=O)(=O)c2ccc(Br)cc2)c(=O)n1[C@@H](CC)c1cccc2c1OCO2 [Example 261, 3-[(1S)-1-(2H-1,3-benzodioxol-4-yl)propyl]-5-(4-bromobenzenesulfonyl)-2-butyl-6-hydroxy-3,4-dihydropyrimidin-4-one]	0.01 to 10
Cc1c(-c2ccc(S(=O)(=O)c3c(O)n([C@H]4CCc5ccccc54)c(COC(C)C)nc3=O)cc2)ccnc1F [Example 331, 1-[(1S)-2,3-dihydro-1H-inden-1-yl]-5-[4-(2-fluoro-3-methylpyridin-4-yl)benzenesulfonyl]-6-hydroxy-2-[(propan-2-yloxy)methyl]-1,4-dihydropyrimidin-4-one]	0.01 to 10
CCCCc1nc(=O)c(S(=O)(=O)c2ccc(-c3cncc(F)c3)cc2)c(O)n1[C@@H](CC)c1cccc(F)c1 [Example 214, 2-butyl-1-[(1S)-1-(3-fluorophenyl)propyl]-5-[4-(5-fluoropyridin-3-yl)benzenesulfonyl]-6-hydroxy-1,4-dihydropyrimidin-4-one]	0.01 to 10
CCCCc1nc(=O)c(S(=O)(=O)c2ccc(-c3ccncc3C)cc2)c(O)n1[C@@H](COC)c1cccc(C#N)c1 [Example 251, 3-[(1R)-1-{2-butyl-6-hydroxy-5-[4-[3-methylpyridin-4-yl)benzenesulfonyl]-4-oxo-1,4-dihydropyrimidin-1-yl}-2-methoxyethyl] benzonitrile]	0.01 to 10

same assay, conditions: human APJ, intracellular cAMP accumulation; read-out: Human APJ cAMP EC50 Potency range

SMILES	EC50 [nM]
CCCCc1nc(=O)c(S(=O)(=O)c2ccc(C(=O)NC)cc2)c(O)n1-c1c(OC)cccc1OC [Example 92, 4-{[2-butyl-1-(2,6-dimethoxyphenyl)-6-hydroxy-4-oxo-1,4-dihydropyrimidin-5-yl]sulfonyl}-N-methylbenzamide]	0.01 to 10
CCCCc1nc(=O)c(S(=O)(=O)c2ccc(C)cc2)c(O)n1-c1c(CC)cccc1CC [Example 66, 2-butyl-1-(2,6-diethylphenyl)-6-hydroxy-5-(4-methylbenzenesulfonyl)-1,4-dihydropyrimidin-4-one]	0.01 to 10
CCCCc1nc(=O)c(S(=O)(=O)c2ccc(C(=O)N3CCC(F)(F)C3)cc2)c(O)n1-c1c(OC)cccc1OC [Example 95, 2-butyl-5-[4-(3,3-difluoropyrrolidine-1-carbonyl)benzene-sulfonyl]-1-(2,6-dimethoxyphenyl)-6-hydroxy-1,4-dihydropyrimidin-4-one]	0.01 to 10
COC[C@@H](c1ccccc1)n1c(CCC(C)C)nc(=O)c(S(=O)(=O)c2ccc(-c3ccc(F)nc3)cc2)c1O [Example 199, 5-[4-(6-fluoropyridin-3-yl)benzenesulfonyl]-6-hydroxy-1-[(1R)-2-methoxy-1-phenylethyl]-2-(3-methylbutyl)-1,4-dihydropyrimidin-4-one]	0.01 to 10
CCCCc1nc(=O)c(S(=O)(=O)c2ccc(-c3ccc(F)nc3)cc2)c(O)n1[C@@H](COC)c1ccccc1 [Example 133, 2-butyl-5-[4-(6-fluoropyridin-3-yl)benzenesulfonyl]-6-hydroxy-1-[(1R)-2-methoxy-1-phenylethyl]-1,4-dihydropyrimidin-4-one]	0.01 to 10
CCCCc1nc(=O)c(S(=O)(=O)c2ccc(-c3cn(C)nc3C(F)(F)F)cc2)c(O)n1-c1c(OC)cccc1OC [Example 9, 2-butyl-1-(2,6-dimethoxyphenyl)-6-hydroxy-5-{4-[1-methyl-3-(trifluoromethyl)-1H-pyrazol-4-yl]benzenesulfonyl}-1,4-dihydropyrimidin-4-one]	0.01 to 10
CCCCc1nc(=O)c(S(=O)(=O)c2ccc(-c3ccc(F)nc3C)cc2)c(O)n1C(c1ccccc1)C1CC1 (stereo not drawn) [Example 202, 2-butyl-1-[cyclopropyl(phenyl)methyl]-5-[4-(6-fluoro-2-methylpyridin-3-yl)benzenesulfonyl]-6-hydroxy-1,4-dihydropyrimidin-4-one]	0.01 to 10
CCCCc1nc(=O)c(S(=O)(=O)c2ccc(-c3ccc(F)nc3)cc2)c(O)n1[C@@H](CC)c1cccc(Cl)c1 [Example 200, 2-butyl-1-[(1S)-1-(3-chlorophenyl)propyl]-5-[4-(6-fluoropyridin-3-yl)benzenesulfonyl]-6-hydroxy-1,4-dihydropyrimidin-4-one]	0.01 to 10
